We go through 19 compounds from ChEMBL document CHEMBL5634077, “Recent advances in 1,2,3- and 1,2,4-triazole hybrids as antimicrobials and their SAR: A critical review” (2023).

SMILES strings stand for the structures. Values after ≈ are worked out from the molar mass of the structure shown.

The subject of assay [1] is Staphylococcus aureus. Nature of the assay: Antibacterial activity against methicillin resistant Staphylococcus aureus incubated for 20 hrs by broth microdilution method. It is filed as functional. A general note: Broth dilution looks for growth in wells or tubes with falling amounts of substance.
The subject of assay [2] is Candida albicans. Nature of the assay: Antifungal activity against Candida albicans Y0109 assessed as reduction in fungal growth incubated for 24 hrs by NCCLS based assay. It is filed as functional.
Assay [3] concerns Candida albicans. Nature of the assay: Antifungal activity against Candida albicans SC5314 assessed as reduction in fungal growth incubated for 24 hrs by NCCLS based assay. It is filed as functional.
In another assay the test system is Nakaseomyces glabratus. Nature of the assay: Antifungal activity against Candida glabrata 537 assessed as reduction in fungal growth incubated for 72 hrs by NCCLS based assay. It is filed as functional.
The test system of assay [4] is Cryptococcus neoformans. Nature of the assay: Antifungal activity against Cryptococcus neoformans 32609 assessed as reduction in fungal growth incubated for 72 hrs by NCCLS based assay. It is filed as functional.
The subject of a further assay is Aspergillus fumigatus. The assay can be described thus: Antifungal activity against Aspergillus fumigatus 7544 assessed as reduction in fungal growth incubated for 5 to 7 days by NCCLS based assay. It is filed as functional. The conditions noted are these: time 5-7 day.
The next assay concerns Trichophyton rubrum. The assay can be described thus: Antifungal activity against Trichophyton rubrum assessed as reduction in fungal growth incubated for 5 to 7 days by NCCLS based assay. It is filed as functional. Conditions: time 5-7 day.
In another assay the test system is Nannizzia gypsea. Nature of the assay: Antifungal activity against Microsporum gypseum assessed as reduction in fungal growth incubated for 5 to 7 days by NCCLS based assay. It is filed as functional. The conditions noted are these: time 5-7 day.
The test system of assay [5] is Staphylococcus aureus. The assay can be described thus: Antibacterial activity against Staphylococcus aureus assessed as diameter of inhibition zone. It is filed as functional.
The subject of assay [6] is Candida albicans. The assay can be described thus: Antifungal activity against Candida albicans ATCC 90028 assessed as growth inhibition incubated for 24 hrs. It is filed as functional.
Another assay deals with Pseudomonas aeruginosa. The assay can be described thus: Antibacterial activity against Pseudomonas aeruginosa MTCC 1034 assessed as reduction in bacterial growth. It is filed as functional.
Assay [7] deals with Bacillus subtilis. Nature of the assay: Antibacterial activity against Bacillus subtilis MTCC 441 assessed as reduction in bacterial growth. It is filed as functional.
The subject of assay [8] is Staphylococcus aureus. Nature of the assay: Antibacterial activity against Staphylococcus aureus assessed as diameter of inhibition zone incubated for 24 hrs by well diffusion assay. It is filed as functional.
Assay [9] concerns Bacillus subtilis. The assay can be described thus: Antibacterial activity against Bacillus subtilis RCMB 010069 assessed as diameter of inhibition zone incubated for 24 hrs by well diffusion assay. It is filed as functional. On the technique in general: In agar diffusion tests the substance spreads into inoculated agar from a disc or well.
Assay [10] relates to Proteus vulgaris. Nature of the assay: Antibacterial activity against Proteus vulgaris RCMB 004 assessed as diameter of inhibition zone incubated for 24 hrs by well diffusion assay. It is filed as functional.
The test system of assay [11] is Escherichia coli. Nature of the assay: Antibacterial activity against Escherichia coli RCMB 010052 assessed as diameter of inhibition zone incubated for 24 hrs by well diffusion assay. It is filed as functional.
A further assay concerns Aspergillus flavus. The assay can be described thus: Antifungal activity against Aspergillus flavus assessed as diameter of inhibition zone incubated for 24 hrs by well diffusion assay. It is filed as functional.
A further assay deals with Geotrichum candidum. The assay can be described thus: Antifungal activity against Geotrichum candidum RCMB 052006 assessed as diameter of inhibition zone incubated for 24 hrs by well diffusion assay. It is filed as functional.
Assay [12] relates to Candida albicans. The assay can be described thus: Antifungal activity against Candida albicans assessed as fungal growth inhibition by CLSI based method. It is filed as functional.
Assay [13] has as its system Cryptococcus neoformans. The assay can be described thus: Antifungal activity against Cryptococcus neoformans assessed as fungal growth inhibition by CLSI based method. It is filed as functional.
Assay [14] deals with Bacillus subtilis. Nature of the assay: Antibacterial activity against Bacillus subtilis ATCC 6633 assessed as reduction in microbial growth. It is filed as functional.
The subject of a further assay is Micrococcus luteus. The assay can be described thus: Antibacterial activity against Micrococcus luteus IFC 12708 assessed as reduction in microbial growth. It is filed as functional.
The test system of assay [15] is Staphylococcus aureus. Nature of the assay: Antibacterial activity against Staphylococcus aureus ATCC 6538p assessed as reduction in microbial growth. It is filed as functional.
Assay [16] has as its system Proteus vulgaris. The assay can be described thus: Antibacterial activity against Proteus vulgaris ATCC 3851 assessed as reduction in microbial growth. It is filed as functional.
In a further assay the test system is Salmonella typhimurium. Nature of the assay: Antibacterial activity against Salmonella typhimurium SL1344 assessed as reduction in microbial growth. It is filed as functional, Salmonella enterica subsp. enterica serovar Typhimurium. The conditions noted are these: Salmonella enterica.
Assay [17] has as its system Escherichia coli. Nature of the assay: Antibacterial activity against Escherichia coli ATCC 25922 assessed as reduction in microbial growth. It is filed as functional.
The next assay concerns Aspergillus niger. The assay can be described thus: Antifungal activity against Aspergillus niger assessed as fungal growth inhibition. It is filed as functional.

Turning to `COc1cc(/C=C/c2ccc(OCc3cn(-c4ccc(C(=O)O)cc4)nn3)cc2)cc(OC)c1`, the minimal inhibitory concentration (MIC) (usually the lowest concentration that inhibits growth of the organism) with Staphylococcus aureus [1] amounted to 1.2 µg/mL (≈ 2.62 µM).
As for `C[C@@H](OCc1cc(-c2c(F)cc(F)cc2F)no1)[C@](O)(Cn1cncn1)c1ccc(F)cc1F`, the MIC80 (in general, the lowest concentration that inhibits either 80% of growth or 80% of the strains tested, depending on the study) in the assay on Candida albicans [2] was 0.062 µg/mL (≈ 0.129 µM); with Candida albicans [3] it was 0.125 µg/mL (≈ 0.26 µM); in the assay on Nakaseomyces glabratus, 0.125 µg/mL (≈ 0.26 µM); in the assay on Cryptococcus neoformans [4], 1 µg/mL (≈ 2.08 µM); in the assay with Aspergillus fumigatus it was 4 µg/mL (≈ 8.33 µM); in the assay with Trichophyton rubrum it was 2 µg/mL (≈ 4.16 µM). Also, in the assay with Nannizzia gypsea, the MIC80 turned out to be 1 µg/mL (≈ 2.08 µM).
For the compound `C[C@@H](OCc1cc(-c2cccc(F)c2F)no1)[C@](O)(Cn1cncn1)c1ccc(F)cc1F`, the MIC80 stood at 0.25 µg/mL (≈ 0.541 µM) in the assay with Candida albicans [2]; 0.5 µg/mL (≈ 1.08 µM) in the assay with Candida albicans [3]; 0.5 µg/mL (≈ 1.08 µM) in the assay with Nakaseomyces glabratus; 1 µg/mL (≈ 2.16 µM) in the assay with Cryptococcus neoformans [4]; 8 µg/mL (≈ 17.3 µM) in the assay with Aspergillus fumigatus; 2 µg/mL (≈ 4.33 µM) with Trichophyton rubrum. In the assay with Nannizzia gypsea, the MIC80 stood at 1 µg/mL (≈ 2.16 µM).
With `Cc1ccc(-c2cc(CO[C@H](C)[C@](O)(Cn3cncn3)c3ccc(F)cc3F)on2)cc1`, the MIC80 with Candida albicans [2] worked out at 0.125 µg/mL (≈ 0.284 µM); with Candida albicans [3] it was 0.25 µg/mL (≈ 0.568 µM); in the assay with Nakaseomyces glabratus, 0.5 µg/mL (≈ 1.14 µM); in the assay on Cryptococcus neoformans [4], 2 µg/mL (≈ 4.54 µM); in the assay with Aspergillus fumigatus, 8 µg/mL (≈ 18.2 µM); in the assay on Trichophyton rubrum it was 4 µg/mL (≈ 9.08 µM). Moreover, the MIC80 in the assay on Nannizzia gypsea came out at 2 µg/mL (≈ 4.54 µM).
With `Cc1ccccc1-c1cc(CO[C@H](C)[C@](O)(Cn2cncn2)c2ccc(F)cc2F)on1`, the MIC80 came to 0.031 µg/mL (≈ 0.0704 µM) in the assay on Candida albicans [2]; 0.125 µg/mL (≈ 0.284 µM) in the assay with Candida albicans [3]; 0.25 µg/mL (≈ 0.568 µM) with Nakaseomyces glabratus; 1 µg/mL (≈ 2.27 µM) with Cryptococcus neoformans [4]; 4 µg/mL (≈ 9.08 µM) with Aspergillus fumigatus; 4 µg/mL (≈ 9.08 µM) in the assay with Trichophyton rubrum. For the same compound, the MIC80 in the assay on Nannizzia gypsea worked out at 2 µg/mL (≈ 4.54 µM).
Turning to `CCOc1cccc(-n2cc(C(C)N3C(=O)C(=O)c4ccccc43)nn2)c1` (stereo not drawn), the “diameter of the inhibition zone (DIZ)” value with Staphylococcus aureus [5] worked out at 10 mm.
For the compound `CCCNC(=O)c1nnn(-c2ccc(Br)cc2)c1C`, the “growth inhibition (GI)” value in the assay with Candida albicans [6] was 13.2%.
Turning to `C=CCCC1CC(=O)N1Cc1cn(-c2ccc(Cl)cc2)nn1` (stereo not drawn), the MIC in the assay with Pseudomonas aeruginosa and with Bacillus subtilis [7] was 1.25 µg/mL (≈ 3.95 µM) in each case.
Take `Cc1c(-c2cc(-c3ccccn3)nc(S)n2)nnn1-c1ccc(-n2nnc(-c3cc(-c4ccccn4)nc(S)n3)c2C)cc1`: the “diameter of the inhibition zone (DIZ)” value worked out at 23.3 mm with Staphylococcus aureus [8]; 36.2 mm with Bacillus subtilis [9]; 23.3 mm in the assay with Proteus vulgaris [10]; 35.2 mm in the assay on Escherichia coli [11]; 24.02 mm in the assay with Aspergillus flavus; 26.3 mm with Geotrichum candidum.
With `COc1cc(/C=C/c2ccc(OCc3cn(CCCCCC(=O)O)nn3)cc2)cc(OC)c1`, it took 78.1 µg/mL (≈ 173 µM) to inhibit growth with Staphylococcus aureus [1] (MIC).
Regarding `CCCCNC(=O)c1nnn(-c2ccc(Br)cc2)c1C`, in the assay on Candida albicans [6], the “growth inhibition (GI)” value is on record as 63.7%.
In turn, `COc1cc(/C=C/c2ccc(OCc3cn(Cc4ccc(C(=O)O)cc4)nn3)cc2)cc(OC)c1` had an MIC in the assay on Staphylococcus aureus [1] of 312 µg/mL (≈ 663 µM).
Regarding `O=C(c1ccc(Cl)cc1)C(C(c1ccccc1)c1ccccc1)n1cncn1` (stereo not drawn), the minimal inhibitory concentration (MIC) in the assay on Candida albicans [12] and with Cryptococcus neoformans [13] was 0.5 µg/mL (≈ 1.29 µM) each time.
Turning to `Cc1c(-c2cc(-c3c[nH]c4ccccc34)nc(NN)n2)nnn1-c1ccc(-n2nnc(-c3cc(-c4c[nH]c5ccccc45)nc(NN)n3)c2C)cc1`, the “diameter of the inhibition zone (DIZ)” value in the assay on Staphylococcus aureus [8] turned out to be 20.9 mm; with Bacillus subtilis [9], 41.3 mm; in the assay with Proteus vulgaris [10], 26.9 mm; in the assay with Escherichia coli [11], 33.9 mm; in the assay with Aspergillus flavus it was 21.3 mm; in the assay with Geotrichum candidum, 24.4 mm.
Regarding `C[C@@H](OCc1cc(-c2ccc(F)cc2)no1)[C@](O)(Cn1cncn1)c1ccc(F)cc1F`, the MIC80 was 0.031 µg/mL (≈ 0.0698 µM) with Candida albicans [2]; 0.031 µg/mL (≈ 0.0698 µM) in the assay with Candida albicans [3]; 0.125 µg/mL (≈ 0.281 µM) in the assay with Nakaseomyces glabratus; 0.5 µg/mL (≈ 1.13 µM) in the assay with Cryptococcus neoformans [4]; 4 µg/mL (≈ 9 µM) in the assay with Aspergillus fumigatus; 1 µg/mL (≈ 2.25 µM) in the assay with Trichophyton rubrum. In addition, the MIC80 with Nannizzia gypsea was found to be 0.5 µg/mL (≈ 1.13 µM).
With `O=C(c1ccc(Br)cc1)C(Cc1ccccc1)n1cncn1` (stereo not drawn), the minimum inhibitory concentration (MIC) with Candida albicans [12] and in the assay with Cryptococcus neoformans [13] was 0.5 µg/mL (≈ 1.4 µM) throughout.
Take `O=C(c1ccc(F)cc1)C(C(c1ccccc1)c1ccccc1)n1cncn1` (stereo not drawn): the MIC in the assay with Candida albicans [12] and in the assay with Cryptococcus neoformans [13] was 0.5 µg/mL (≈ 1.35 µM) in each case.
Consider `COc1ccc(N2C(=O)CSC2c2cn(-c3ccccc3)nc2-c2nnn(-c3ccccc3)c2C)cc1` (stereo not drawn), for which the minimum inhibitory concentration (MIC) with Bacillus subtilis [14], with Micrococcus luteus, in the assay with Staphylococcus aureus [15], with Proteus vulgaris [16], in the assay with Salmonella typhimurium and in the assay on Escherichia coli [17] was 1.56 µg/mL throughout.
For the compound `CCCCCCCCCCCCCCCc1nnc(S)n1/N=C\c1ccc([N+](=O)[O-])cc1`, in the assay on Aspergillus niger, the MIC stood at 27.1 µg/mL (≈ 59 µM).
